Experimental data published in patent US12472193B2, “Methods and compositions for treating and preventing respiratory related diseases and conditions with xylitol-headgroup lipid analogs” (National Jewish Health, priority 2017, dated 2025).
Entries after “also recorded” stand apart in the source; their conditions may differ.

How the values were obtained:
TLR 4 [1] = target: T1, TLR 4 (Mus musculus, UniProt Q9JHF9+Q9QUK6); experiment: LPS-induced TNF-α secretion by RAW264.7 cells (TLR 4 antagonism); format: cell-based; details: for antagonism of TLR 4 activation (TNFα secretion): 10 ng/mL LPS, 50 μg/mL lipid; for antagonism of TLR 4 activation (TNFα secretion) / IC50 values (inhibition of TNFα release) / IC50: 4 hours; for IC50 values (inhibition of TNFα release) / IC50: RAW264.7, 10 ng/mL LPS, lipid 100 to 0.008 μg/mL; for potency as TLR 4 antagonist compared to POPG: from dose response curves; for IC50: read-out: IC50 values (inhibition of TNFα release) (converted)
T1 construct: endogenous in cells; host or cells: RAW264.7 (ATCC)
T1 sequence (Q9QUK6 26-835): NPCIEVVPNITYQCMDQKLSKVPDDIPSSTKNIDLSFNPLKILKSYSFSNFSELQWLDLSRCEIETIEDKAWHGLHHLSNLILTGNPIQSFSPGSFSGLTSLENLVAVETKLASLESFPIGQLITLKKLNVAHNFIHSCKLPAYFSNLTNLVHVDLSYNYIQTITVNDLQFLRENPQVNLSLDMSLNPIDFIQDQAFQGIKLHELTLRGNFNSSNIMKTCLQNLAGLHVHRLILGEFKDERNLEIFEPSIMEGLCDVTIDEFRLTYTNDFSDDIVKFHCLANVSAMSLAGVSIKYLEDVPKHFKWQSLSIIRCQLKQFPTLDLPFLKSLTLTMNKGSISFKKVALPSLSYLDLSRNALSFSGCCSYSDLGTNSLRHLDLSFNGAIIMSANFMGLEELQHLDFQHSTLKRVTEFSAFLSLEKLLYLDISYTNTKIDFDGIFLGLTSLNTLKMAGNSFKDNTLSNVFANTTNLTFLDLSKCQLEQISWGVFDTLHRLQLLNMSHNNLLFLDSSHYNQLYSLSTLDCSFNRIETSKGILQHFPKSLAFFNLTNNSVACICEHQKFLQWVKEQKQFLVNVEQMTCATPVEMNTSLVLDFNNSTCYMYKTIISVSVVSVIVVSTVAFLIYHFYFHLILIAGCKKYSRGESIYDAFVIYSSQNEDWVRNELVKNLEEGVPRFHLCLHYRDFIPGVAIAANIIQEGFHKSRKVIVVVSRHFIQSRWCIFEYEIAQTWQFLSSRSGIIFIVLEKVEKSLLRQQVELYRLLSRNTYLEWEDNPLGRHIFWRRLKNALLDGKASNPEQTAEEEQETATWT
T1 sequence (Q9JHF9 19-160): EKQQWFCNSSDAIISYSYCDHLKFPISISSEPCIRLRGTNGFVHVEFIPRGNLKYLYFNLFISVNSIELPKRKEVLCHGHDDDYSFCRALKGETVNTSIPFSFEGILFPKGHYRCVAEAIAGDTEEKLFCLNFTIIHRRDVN
Experimental: The mouse macrophage cell line, RAW264.7, was obtained from ATCC and maintained in DMEM, supplemented with 10% bovine growth serum and 1× penicillin streptomycin. Cells were maintained at 37° C. with 5% carbon dioxide: 95% air atmosphere within the incubator. Experiments were completed in a 96-well plate where cells were seated at a density of 1×10^5 cells per well, 24 prior to stimulation with TLR agonists and antagonists. Lipids were dried under a stream of nitrogen, hydrated with phosphate-buffered saline (PBS) at 37° C. for one hour, followed by water bath sonication to create liposomes. Each condition for cell stimulation and antagonism was prepared in DMEM in a separate tube and consisted of: control, TLR agonist, TLR agonist+lipid, and lipid alone. 100 μL aliquots of medium+agonists+antagonists were added to each well and incubated at 37° C. for 4 hours. Subsequently, the media were collected, diluted and an enzyme-linked immunosorbent assay (ELISA) was performed to quantify TNFα release by cells.
The additional experiments disclosed herein, tested the initial activity of multiple POPG analogs. […] However, it was unknown how the combination of a xylitol head group along with varying hydrophobic chains affects this activity and mechanism of suppression. Varying the hydrophobic chains provides an approach for optimization of a PX lipid for maximum efficacy and uncovers important structure/function relationships. To test antagonist activity of PX lipids for preventing the activation of TLR 4, LPS was added to RAW264.7 cells at 10 ng/mL in the absence or presence of 50 μg/mL of lipid and incubated for 4 hours. After incubation, media were collected and secretion of the proinflammatory cytokine, TNFα, was quantified by ELISA as a downstream consequence of TLR 4 activation. Eight xylitol lipid analogs suppressed the activation of TLR 4 in the presence of LPS stimulus. […] Although inhibition of TLR 4 by DSPX was statistically different from LPS alone, its antagonism was marginal. DSPX is also a saturated lipid and the hydrophobic chains are 18 carbons in length. […] In these studies none of the lipids alone elicited significant amounts of proinflammatory cytokine release.
For quantitative comparisons between POPG analogs and POPG, concentration-dependent inhibition studies were performed and IC50 values were determined. RAW264.7 cells were stimulated with 10 ng/mL of LPS in combination with concentrations of lipid from 100 μg/mL to 0.008 μg/mL. Cells were stimulated for 4 hours followed by collection of media and quantification of TNFα released into the medium.

TLR 4 [2] = target: T1, TLR 4; experiment: as above; format: cell-based; details: reduction in cytokine secretion vs activating TLR ligand alone

| SMILES | antagonism of TLR 4 activation (TNFα secretion) (TLR 4 [1]) | IC50 values (inhibition of TNFα release) (TLR 4 [1]) | inhibitory concentration reducing TNF-α production by 50% (IC50), as shown in FIG. 3 (TLR 4 [1]; RAW264.7, 10 ng/ml LPS) [µg/mL] | potency as TLR 4 antagonist compared to POPG (TLR 4 [1]) | TLR2 antagonist activity (TLR 4 [2]) | IC50 (TLR 4 [1]) [µM] |
| --- | --- | --- | --- | --- | --- | --- |
| CCCCCCCC/C=C\CCCCCCCC(=O)O[C@H](COC(=O)CCCCCCCCCCCCCCC)COP(=O)([O-])OCC[N+](C)(C)C [POPC, 1-palmitoyl-2-oleoyl-sn-glycero-3-phosphocholine, reference compound] | does not significantly alter the activation of TLR4 | could not be determined | – | – | – | – |
| CCCCCCCC/C=C\CCCCCCCC(=O)O[C@H](COC(=O)CCCCCCCCCCCCCCC)COP(=O)(O)OCC(O)CO (stereo partly shown) [POPG, palmitoyl-oleoyl-phosphatidylglycerol, reference compound] | inhibits activation of TLR4 | 3.33 µg/mL | ~2 | – | – | – |
| CCCCCCCCC=CCCCCCCCCOCC(COP(=O)(O)OCC(O)C(O)C(O)CO)OCCCCCCCCC=CCCCCCCCC (mixture of isomers) [18:1 DEPX, sn-1-O-octadecenyl, sn-2-O-octadecenyl sn-3 glycerol phosphoxylitol] | effective antagonists; also recorded: inhibit | 0.33 µg/mL | – | more potent antagonists of TLR 4 activation than POPG | + (cutoff being greater than a 50% reduction in cytokine secretion compared to activating TLR ligand alone) | – |
| CCCCCCCCCCCCCCCC(=O)OCC(COP(=O)(O)OCC(O)C(O)C(O)CO)OC(=O)CCCCCCCCCCCCCCC (stereo not shown) [DPPX, sn-1-palmitoyl, sn-2-palmitoyl sn-3 glycerol phosphoxylitol] | ineffective as an antagonist | could not be determined | – | – | – | – |
| CCCCCCCC/C=C\CCCCCCCC(=O)O[C@H](COC(=O)CCCCCCCCCCCCCCC)COP(=O)(O)OCC(O)C(O)C(O)CO (stereo partly shown) [POPX, sn-1-palmitoyl, sn-2-oleoyly sn-3 glycerol phosphoxylitol] | – | 0.52 µg/mL | – | more potent antagonists of TLR 4 activation than POPG | + (cutoff being greater than a 50% reduction in cytokine secretion compared to activating TLR ligand alone) | – |
| CCCCCCC=CCCCCCCCC(=O)OCC(COP(=O)(O)OCC(O)C(O)C(O)CO)OC(=O)CCCCCCCC=CCCCCCC (mixture of isomers) [16:1 DPPX, sn-1-palmitoleoyl, sn-2-palmitoleoyl sn-3 glycerol phosphoxylitol] | – | 1 µg/mL | – | – | + (cutoff being greater than a 50% reduction in cytokine secretion compared to activating TLR ligand alone) | – |
| CCCCCCCCC=CCCCCCCCC(=O)OCC(COP(=O)(O)OCC(O)C(O)C(O)CO)OC(=O)CCCCCCCC=CCCCCCCCC (mixture of isomers) [DOPX, sn-1-oleoyl, sn-2-oleoyl sn-3 glycerol phosphoxylitol] | inhibit | 0.36 µg/mL | – | more potent antagonists of TLR 4 activation than POPG | + (cutoff being greater than a 50% reduction in cytokine secretion compared to activating TLR ligand alone) | – |
| CCCCCCCCCCCCCC(=O)OC[C@H](COP(=O)(O)OCC(O)C(O)C(O)CO)OC(=O)CCCCCCCCCCCCC (mixture of isomers) [DMPX, sn-1-myristoyl, sn-2-myristoyl sn-3 glycerol phosphoxylitol] | strong antagonistic activity | – | – | – | + (cutoff being greater than a 50% reduction in cytokine secretion compared to activating TLR ligand alone) | 33 |
| CCCCCCCCCCCCCCOC[C@H](COP(=O)(O)OCC(O)C(O)C(O)CO)OCCCCCCCCCCCCCC (mixture of isomers) [14:0 DEPX, sn-1-O-myristyl, sn-2-O-myristyl sn-3 glycerol phosphoxylitol] | effective antagonists | – | – | – | + (cutoff being greater than a 50% reduction in cytokine secretion compared to activating TLR ligand alone) | 4.08 |
| CCCCCCCCCCCCCCCCCC(=O)OCC(COP(=O)(O)OCC(O)C(O)C(O)CO)OC(=O)CCCCCCCCCCCCCCCCC (stereo not shown) [DSPX, sn-1-stearoyl, sn-2-stearoyl sn-3 glycerol phosphoxylitol] | marginal | could not be determined | – | – | – | – |
| CCCCCC=CCC=CCCCCCCCC(=O)OCC(COP(=O)(O)OCC(O)C(O)C(O)CO)OC(=O)CCCCCCCC=CCC=CCCCCC (mixture of isomers) [18:2 DLPX, sn-1-linoleoyl, sn-2-linoleoyl sn-3 glycerol phosphoxylitol] | – | 0.28 µg/mL | – | more potent antagonists of TLR 4 activation than POPG | + (cutoff being greater than a 50% reduction in cytokine secretion compared to activating TLR ligand alone) | – |
